The text below walks through data of publication PMC3221505, “Simple, Rapid and Validated LC Determination of Lopinavir in Rat Plasma and its Application in Pharmacokinetic Studies” (Scientia Pharmaceutica, 2011).

By AUC is commonly meant the area under the concentration-time curve, a measure of exposure. Broadly, the half-life is the time in which the quantity being followed falls by half. As a reminder, the MRT is the average time that molecules of a dose stay in the body. By clearance is commonly meant a measure of how efficiently the substance is removed, as volume per time.

Data set [1] in a line: Pharmacokinetic study after intravenous bolus administration of LPV in rats. The settings on record: male Wistar rats, 5 mg kg^−1, n = 6, plasma. It counts as in vivo. On the procedure:
Formulation was administered through tail vein in male Wistar rats (n = 6), weighing 180 to 220 g, at a dose of 5 mg kg^−1 [35]. Blood samples were drawn from retro-orbital plexus of Wistar rats at 0.083, 0.167, 0.25, 0.5, 1, 2, 3, 4, 6, 8, 12 and 24 h post dose in microfuge tube pretreated with sodium citrate solution (3.8% w/v). A baseline blank plasma sample was drawn from each animal before drug administration. All samples were processed according to the procedure described earlier and analyzed using the validated HPLC method.

A short description of data set [2]: Freeze-thaw stability of LPV in rat plasma. The following applies: rat plasma QC samples, end of three freeze-thaw cycles, frozen at −20 °C. The class given is in vitro ADME, Wistar rat. Here is the method:
Total of four sets were prepared in triplicates and one set of the prepared concentrations was analyzed on the day of preparation (no freeze-thaw cycle) and the remaining three sets were frozen at −20 °C for 24 h. Frozen samples were thawed by keeping the sealed tubes at room temperature for at least 1 h. One set in triplicate was analyzed and the remaining two sets were kept at −20 °C for freezing and were analyzed after two and three freeze-thaw cycles.

Data set [3] in a line: Post extraction stability of processed samples of LPV in rat plasma. The class given is physicochemical, Wistar rat. The settings on record: processed rat plasma QC samples kept in auto sampler rack, 24 h. On the procedure:
Processed samples were kept in the sample rack of auto sampler and samples were analyzed in triplicates every 6 h for 24 h period on the day of preparation. The percentage deviation from the mean concentrations observed at zero time was calculated.

Turning to `Cc1cccc(C)c1OCC(=O)N[C@@H](Cc1ccccc1)[C@@H](O)C[C@H](Cc1ccccc1)NC(=O)[C@H](C(C)C)N1CCCNC1=O` [LPV, (2S)-N-[(1S,3S,4S)-1-benzyl-4-{[(2,6-dimethyl-phenoxy)acetyl]amino}-3-hydroxy-5-phenylpentyl]-3-methyl-2-(2-oxotetrahydropyrimidin-1(2H)-yl)butanamide], the “area under the first-moment curve (AUMC)” value in data set [1] is given as 4403.07 ± 171.33 h^2 ng mL^−1. The area under the curve (AUC) in data set [1] (rat, read-out: area under the curve (AUC)) was 3850 ± 264 ng·h/mL. Also, the C0 in data set [1] (rat, read-out: concentration at time zero (Co)) worked out at 3170 ± 290 ng/mL. For the same compound, the half-life in data set [1] (rat, read-out: elimination half-life (t½) (converted)) was 49.2 ± 1.8 min. For the same compound, the MRT in data set [1] (rat, read-out: mean retention time (MRT)) came out at 69 ± 3 min. For the same compound, the clearance in data set [1] (rat, read-out: total plasma clearance (CLs) (converted)) was 22.4 mL/min/kg. Also, in data set [1] (rat, read-out: volume of distribution (Vss)), the Vd turned out to be 1.59 ± 0.146 L/kg. The “deviation from the zero time concentration (freeze-thaw stability)” value in data set [2] is given as “less than 8.0%”. The “maximum deviation from the zero time concentration (post extraction stability)” value in data set [3] was “less than 2.0%”.
